# From US5543276A, “Color photographic element containing new epoxy scavengers for residual magenta coupler” (Eastman Kodak Company, priority 1994, dated 1996)
# Experiments:
# [1] = Residual magenta coupler M-20 in unexposed strips, raw stock and RA-4 processed; settings: coated M-20 32.8 mg/ft^2; for M-20 remaining, Processed after 2wk / M-20 remaining, Processed after 4wk: unexposed strips, standard RA-4 developer; for M-20 remaining, Processed after 2wk / M-20 remaining, Raw Stock after 2wk RT: 2 weeks room temperature; for M-20 remaining, Processed after 4wk / M-20 remaining, Raw Stock after 4wk: 4 weeks room temperature; for M-20 remaining, Raw Stock after 2wk RT / M-20 remaining, Raw Stock after 4wk: unprocessed strips
# Procedure: A dispersion of the magenta coupler M-20 and scavenger coupler S-1 were prepared in the following manner:
# The oil phase was prepared by combining 1.875 grams of S-1 with 0.852 grams of myrisitc acid and 30 grams of ethyl acetate. The solution was stirred on a hot plate for about 5 minutes.
# The aqueous phase was prepared by combining 3.0 grams of a 10% solution of Alkanol XC with 17.6 grams of a 11.36% solution of Type IV gelatin in water. 26.7 grams of distilled water was then added and the solution was stirred on a hot plate for about five minutes.
# The aqueous phase was combined with the oil phase and the mixture was stirred. The mixture was then passed three times through a colloid mill to obtain the dispersion. The ethyl acetate was removed by evaporation under reduced pressure. [drawing 42] The dispersions were then coated in the format shown below (the numbers indicate the amount of each component in mg/ft^2).
# The coating format also contains a UV protection layer and an overcoat (not shown). Unexposed strips were process in standard RA-4 developer and then stored at room temperature. The strips were analyzed for residual coupler as a function of time. A set of unprocessed strips were stored at room temperature for the same length of time to check for reaction between coupler and S-1 in raw stock. A second set of unexposed strips were processed in standard RA-4 developer and then subjected to two weeks of 50 klux high intensity sunshine radiation after storage at room temperature for two weeks. The change in Status A blue density was measured. […]
# [2] = Change in Status A blue density (photochemical yellowing) of processed unexposed strips under high intensity sunshine radiation; settings: RA-4 processed, 2 weeks room temperature, then two weeks 50 klux high intensity sunshine
# Procedure: The coating format also contains a UV protection layer and an overcoat (not shown). Unexposed strips were process in standard RA-4 developer and then stored at room temperature. The strips were analyzed for residual coupler as a function of time. A set of unprocessed strips were stored at room temperature for the same length of time to check for reaction between coupler and S-1 in raw stock. A second set of unexposed strips were processed in standard RA-4 developer and then subjected to two weeks of 50 klux high intensity sunshine radiation after storage at room temperature for two weeks. The change in Status A blue density was measured.
# This coating also contained a UV protection layer and overcoat (not shown). Strips based on the coating were subjected to the same set of tests as in Example 4.
# [3] = epoxy compound coated in separate layers adjacent to imaging layer; copending application Ser. No. 08/000,431; cited from earlier work
compound,measurement,setting,value
O=C(OCCCCCCCCCC1CO1)c1ccccc1C(=O)OCCCCCCCCCC1CO1 (centres unmarked) [S-1],"M-20 remaining, Processed after 2wk",[1],29.9 mg/ft.2
same,"M-20 remaining, Processed after 4wk",[1],29.3 mg/ft.2
same,"M-20 remaining, Raw Stock after 2wk RT",[1],30.2 mg/ft.2
same,"M-20 remaining, Raw Stock after 4wk",[1],28.8 mg/ft.2
same,Delta Blue Density,[2],0.13
same,loss of coupler prior to processing,[3],negligible loss of coupler prior to processing
O=C(CCCCCCCCC1CO1)Oc1ccc(NS(=O)(=O)c2ccc(F)cc2F)cc1 (centres unmarked) [SI-20],"M-20 remaining, Processed after 2wk",[1],14.9 mg/ft.2
same,"M-20 remaining, Processed after 4wk",[1],13.9 mg/ft.2
same,"M-20 remaining, Raw Stock after 2wk RT",[1],28.6 mg/ft.2
same,"M-20 remaining, Raw Stock after 4wk",[1],28.4 mg/ft.2
same,Delta Blue Density,[2],0.05
